Experimental data published in patent publication US5506204A, “Muramyl compounds for treatment of septic shock” (Peptech (UK) Limited, priority 1991, dated 1996).

Experiments:
serum TNF = experiment: Example 7: LPS induction of serum TNF; type: in vivo, BALB/c mice; conditions: C. parvum-primed mice, 100 μg (equimolar) IP, LPS 25 μg 18 hours later; FIG. 5
Protocol: In this experiment, 4 compounds were tested and these are: MDP, GMDP-A, GMDP-OBu and GMDP. Saline was administered to control mice. BALB/c mice (6 mice/group) were injected intraperitoneally with 1.4 mg of dead C. parvum (0.2 ml of a 7 mg/ml suspension.). Mice were subsequently (2 weeks later) treated with saline, MDP (100 μg) or analogue (100 μg) in 0.5 ml saline IP. The dose of each `MDP` was adjusted so that animals received equimolar amounts. LPS (25 μg) was injected 18 hours after the injection of MDP/analogue and mice were subsequently sacrificed and bled out. TNF was determined by standard capture ELISA assay.

[1] = tested on: LPS-induced mortality in mice; experiment: Example 3: LPS-induced mortality in mice; type: in vivo, BALB/c mice; conditions: i.p. twice daily 100 μg or molar equivalent per mouse for 9 days before 300 μg LPS; mortality 2 days after LPS; FIG. 1
Protocol: 25 female BALB/c mice weighing 16-18 g each were divided into 5 groups, each group containing 5 animals. Each group of mice received twice-daily doses of saline, GMDP, GMDP-OBu, MDP or GMDP-A. The compounds were administered by intra-peritoneal injection in twice-daily doses of 100 μg or the molar equivalent per mouse during a 9-day period before the injection of 300 μg LPS per mouse. […] Thus GMDP and GMDP-A would be useful in the treatment and prevention of sepsis and septic shock, whereas MDP and GMDP-OBu would not.

Pyrogenicity = conditions: in vivo
Protocol: The expression "non pyrogenic or of low pyrogenicity" refers to a compound which induces an increase in temperature of an adult human of less than half a degree following the administration of 1 to 2 mg of the compound.
First, muramyl peptide compounds useful in the invention may be non-pyrogenic. Pyrogenicity may be simply measured by methods well known in the art.

IL-1 = experiment: Example 6: IL-1 production by peritoneal macrophages in response to LPS; type: in vivo, BALB/c mice; conditions: 2 injections 12 hours apart; macrophages stimulated with LPS 25 μg/ml 24 hours; thymocyte co-stimulation bioassay; FIG. 4
Protocol: Mice (BALB/c, female) 13-14 g, 5 animals in each group, received 2 injections of MDPs, 12 hours apart. The MDPs tested were MDP, muroctasin, MDP-Thr, MDP-OBu, GMDP-LL, GMDP-Lys(St) and GMDP-A. After the last injection, peritoneal cells were collected and the induction of IL-1 secretion by peritoneal macrophages was tested.
Macrophages were collected from the peritoneal cavity of mice by lavage with Hank's balanced salt solution. After washing the cells, they were then placed in wells of flat-bottomed 96-well plates and incubated at 37° C. for 1 hour in RPMI containing 5% FCS. The plates were then washed with warm RPMI to remove non-adhering cells. LPS (25 μg/ml) was then added in fresh culture medium and the plates were further cultured for 24 hours.
Production of IL-1 by peritoneal macrophages was assayed by thymocyte co-stimulation bioassay. Thymocytes from (CBA*C57BL.6)F1 mice (106), PHA (1 μg.ml), and the tested supernatant (50 μl) were placed into the wells of flat-bottomed 96-well plates. Thymocyte proliferation rate was measured 72 hours later by the incorporation of 3H TdR (1 μCi.well) during 6 hours prior to culture termination.

TNFα = experiment: Example 8: TNF induction by muramyl peptides; type: in vivo, BALB/c mice; conditions: C. parvum-primed mice, 100 μg (equimolar) IP, LPS 25 μg 18 hours later; FIG. 6
Protocol: Here, the muramyl peptides tested were prototype MDP, GMDP, GMDP-A, GMDP-OBu, GMDP-Lys(St), GMDPA-Lys(St), GMDP-Benz and Thr-MDP.
BALB/mice (6 mice/groups) were injected intraperitoneally with 1.4 mg of dead C. parvum (0.2 ml of a 7 mg/ml suspension). Mice were subsequently (2 weeks later) treated with saline, MDP (100 μg) or analogue (100 μg) in 0.5 ml saline IP. The dose of each `MDP` was adjusted so that animals received equimolar amounts. […] (25 μg) was injected 18 hours after the injection of MDP/analogue and the mice were subsequently sacrificed and bled out. TNF was determined by standard capture ELISA assay.

Compound | effect on LPS induction of serum TNF (serum TNF) | effect on LPS-induced mortality [1] | pyrogenicity (Pyrogenicity) | suppression of IL-1 production (IL-1) | effect on LPS-induced TNFα production (TNFα)
N-acetyl-D-glucosaminyl-(β1-4)-N-acetylmuramyl-L-alanyl-D-glutamicacid [GMDP-A] | pro-inflammatory, causing an enhancement of the TNF levels induced by LPS | antagonise the effect of LPS | even less pyrogenic analogue | suppress the IL-1 response to LPS | 
CCCCOC(=O)[C@@H](CCC(N)=O)NC(=O)[C@H](C)NC(=O)[C@@H](C)O[C@H]1[C@H](O)[C@@H](CO)OC(O)[C@@H]1NC(C)=O (stereo partly drawn) [MDP-OBu, N-acetylmuramyl-L-alanyl-D-glutamine-α-N-butyl ester, reference compound] |  |  |  | suppress the IL-1 response to LPS | 
N-acetyl-D-glucosaminyl-(β1-4)-N acetylmuramyl-L-alanyl-D-glutamine n-butyl ester [GMDP-OBu] |  |  |  |  | consistently failed to synergise with LPS
N*-[N-acetyl-D-glucosaminyl-(β1-4)-N-acetylmuramyl-L-alanyl-D-isoglutaminyl]-N*-stearoyl-L-lysine [GMDP-Lys(St)] |  |  |  | suppress the IL-1 response to LPS | enhance LPS-induced TNF production
N*-[N-Acetyl-D-glucosaminyl-(β1-4)-N-acetyl-muramyl-L-alanyl-γ-D-glutamyl]-N*-stearoyl-L-lysine [GMDPA-Lys(St)] |  |  |  |  | enhance LPS-induced TNF production
